# Counter-ions that a name gives are not always drawn.
# Assays:
# T-Loop duplex DNA = assay: FRET melting assay, duplex DNA; format: binding; conditions: standard deviation < 0.2°C; for ΔTm (°C) T-Loop 1 μM: 1 μM compound; for ΔTm (°C) T-Loop 2 μM: 2 μM compound
# Procedure: (§1) The capacity of compounds 1a-d, 2a-d and the standard G4 ligand TMPyP4 (Fig 1) to bind and stabilize KRAS [26] and HSP90A [27] G4 DNA structures as well as duplex DNA (T-loop) was evaluated by a Fluorescence Resonance Energy Transfer (FRET) melting assay. […] It was observed that the basicity of side chains correlates positively with thermal G4 stabilization of all DNA sequences up to an optimal pKa ~ 8.0–9.0 (Fig 2). Heterocyclic amines at the end of alkyl side chain (1b and 2b) appear to improve binding to G4s and complex stabilization compared to the di-ethylamine group (1a and 2a), which cannot be explained by differences in basicity between terminal groups. […] However, this was not observed for the isomeric pair 1a / 2a.
# (§2) All oligonucleotides were purchased from Eurofins MWG Synthesis GmbH, Germany. The labeled oligonucleotides used in the FRET assays had attached the donor fluorophore FAM (6-carboxyfluorescein) and the acceptor fluorophore TAMRA (6-carboxytetramethylrhodamine): KRAS21R (5’-FAM-[…]-TAMRA-3’); HSP90A (5’- [FAM]-[…]-[TAMRA]-3’); T-Loop (5’-FAM-[…]-TAMRA-3’). Each oligonucleotide was initially diluted to a storage solution at 100 μM in nuclease free water (not DEPC-treated), purchased from Ambion Applied Biosystems UK.
# (§3) The ability of IQ3A and TMPyP4 to stabilize G-quadruplex and duplex DNA sequences was investigated using a Fluorescence Resonance Energy Transfer (FRET) assay. Stock solution of the oligonucleotides sequences at 20 μM and subsequent dilutions were obtained from storage solutions diluting with K-cacodylate buffer pH = 7.4, containing 60 mM K^+ (10 mM potassium cacodylate, 50 mM KCl). The FRET probe sequences were diluted from stock to the correct concentration (0.4 μM) and then annealed by heating to 95°C for 10 min, followed by cooling to RT. Test compounds were prepared as 1 mM in 10% DMSO and 10% 1mM HCl in HPLC-grade water. The rest of the dilutions were performed using FRET buffer. Annealed DNA (50 μL) and compound solution (50 μL) were distributed across 96-well RT-PCR plates (BioRad; MJ Research, Waltham, MA, USA). Relevant controls were also performed to check for interference with the assay. Fluorescence readings were made on a DNA Engine Opticon (MJ Research) with excitation at 450–495 nm and detection at 515–545 nm, taken at intervals of 0.5°C in the range 30–100°C, with a constant temperature being maintained for 30 s prior to each reading to ensure a stable value. Experiments were performed in triplicate. Final analysis of the data was carried out with GraphPad Prism 5.0 software (GraphPad Software, Inc). The advanced curve-fitting function in GraphPad Prism was used for calculation of ΔT m values and associated standard deviations.
# HSP90A G-quadruplex DNA = assay: FRET melting assay, HSP90A G-quadruplex DNA; format: binding; conditions: standard deviation < 0.2°C; for ΔTm (°C) HSP90A 1 μM: 1 μM compound; for ΔTm (°C) HSP90A 2 μM: 2 μM compound
# Procedure: as §1, §2, §3
# KRAS21 G-quadruplex DNA = assay: FRET melting assay, KRAS G-quadruplex DNA; format: binding; conditions: standard deviation < 0.2°C; for ΔTm (°C) KRAS21 1 μM: 1 μM compound; for ΔTm (°C) KRAS21 2 μM: 2 μM compound
# Procedure: as §1, §2, §3
# SW620 cells = assay: MTS short-term cytotoxicity assay (72 h), SW620; format: cell-based; conditions: for SW620 IC65 / IC50: 72 h, MTS, standard errors ≤ 0.1; for IC50: Homo sapiens, SW-620, read-out: SW620 IC50
# Procedure: (§4) The short-term effect of compounds at 72 h on cell growth was studied using colorectal carcinoma cell lines with different KRAS and TP53 genotypes: human colorectal carcinoma HCT116 (mut Kras, wild-type (wt) p53), and human metastatic colorectal adenocarcinoma SW620 (mut Kras, mut p53). In parallel, we also used the immortalized human embryonic kidney cell line HEK293T (wt Kras, wt p53) and normal human colon fibroblast cells CCD18co (wt Kras, wt p53).
# (§5) SW620 human colorectal adenocarcinoma cells (European Collection of Cell Cultures, ECACC, Porton Down, Wiltshire, UK), HEK293T human embryonic kidney cells (ATCC, LGC Standards, UK) HCT116 human colon carcinoma cells (ECACC), HCT116 p53(+/+) and p53(−/−) isogenic human colon cancer cells (GRCF Cell Center and Biorepository, the Johns Hopkins University, School of Medicine, Baltimore, MD, USA), were grown in Dulbecco’s modified Eagle’s medium (DMEM) supplemented with 10% fetal bovine serum, and 1% antibiotic/antimycotic (Invitrogen, Grand Island, NY, USA), CCD18co human colon fibroblasts (ATCC, CRL-1459) were grown in Minimum Essential Medium (MEM) supplemented with 10% fetal bovine serum, 1% antibiotic/antimycotic, 2 mM GlutaMAX, 0,1 mM Non-essential amino acids (NEAA) (Invitrogen) and […] Recombinant Human TNF-α (Peprotech, USA) and maintained at 37°C in a humidified atmosphere of 5% CO2.
# (§6) Cell viability was evaluated by the tetrazolium dye (MTS) Short-Term Cytotoxicity Assay. […] Following 72 h of compound exposure, cell viability was evaluated using the CellTiter 96 AQueous Non-Radioactive Cell Proliferation Assay (Promega, Madison, WI, USA), using 3-(4,5-dimethylthiazol-2-yl)-5-(3-carboxymethoxyphenyl)-2-(4-sulfophenyl)-2H-tetrazolium, inner salt (MTS) as previously described [35]. Cell viability data were expressed as mean ±SD from at least three independent experiments. IC50 and IC65 values were determined using GaphPad Prism v.5.00 (GraphPad Software). In selected experiments, cell viability was also assessed by trypan blue exclusion assay, and general cell death by LDH activity from cell culture supernatants.
# HEK293T cells = assay: MTS short-term cytotoxicity assay (72 h), HEK293T; format: cell-based, human; conditions: MTS; for IC50: Homo sapiens, HEK-293T, standard errors ≤ 0.1, read-out: HEK293T IC50; for HEK293T IC65: standard errors ≤ 0.1
# Procedure: as §4, §5, §6
# HCT116 cells [1] = tested on: HCT116 cells; set-up: method as in PMID 23960016; conditions: HCT116 vs primary rat hepatocytes; cited from earlier work
# HCT116 cells [2] = assay: MTS short-term cytotoxicity assay (72 h), HCT116; format: cell-based, human; conditions: for HCT116 IC65 / IC50: 72 h, MTS, standard errors ≤ 0.1; for Selective index (SI) = IC50 CCD-18co / IC50 HCT116: CCD18co vs HCT116; for IC50: Homo sapiens, HCT-116, read-out: HCT116 IC50
# Procedure: as §4, §5, §6
# KRAS mRNA = KRAS mRNA steady-state levels by Taqman Real-time RT-PCR; conditions: IC50 concentrations
# CCD18co cells = assay: MTS short-term cytotoxicity assay (72 h), CCD18co; format: cell-based; conditions: Homo sapiens, CCD-18Co, MTS, standard errors ≤ 0.1, read-out: CCD18co IC50
# Procedure: as §4, §5, §6
Structure (SMILES),melting point,ΔTm (°C) T-Loop 1 μM (T-Loop duplex DNA),ΔTm (°C) T-Loop 2 μM (T-Loop duplex DNA),ΔTm (°C) HSP90A 1 μM (HSP90A G-quadruplex DNA),ΔTm (°C) HSP90A 2 μM (HSP90A G-quadruplex DNA),ΔTm (°C) KRAS21 1 μM (KRAS21 G-quadruplex DNA),ΔTm (°C) KRAS21 2 μM (KRAS21 G-quadruplex DNA),SW620 IC65 (SW620 cells),IC50 (SW620 cells),IC50 (HEK293T cells),HEK293T IC65 (HEK293T cells),Selective growth inhibition of KRAS mutant HCT116 cells compared to primary rat hepatocytes (HCT116 cells [1]),HCT116 IC65 (HCT116 cells [2]),Selective index (SI) = IC50 CCD-18co / IC50 HCT116 (HCT116 cells [2]),IC50 (HCT116 cells [2]),"down-regulation of KRAS transcription (mRNA) (KRAS mRNA; HCT116, 72 h)","down-regulation of KRAS transcription (mRNA) (KRAS mRNA; SW620, 72 h)",IC50 (CCD18co cells),IC50 fold lower than that of 5-FU (SW620 cells; SW620 cells)
O=C(OCCN1CCCC1)c1ccc2c(c1)c1nc3ccccc3c(OCCN3CCCC3)c1n2CCN1CCCC1 (as salt: salt) [1b],159 to 164 °C,,,,,,,,,,,,,,,,,,
O=C(OCCN1CCOCC1)c1ccc2c(c1)c1nc3ccccc3c(OCCN3CCOCC3)c1n2CCN1CCOCC1 (as salt: salt) [1c],141 to 145 °C,,,,,,,,,,,,,,,,,,
O=C(OCCCN1CCCCC1)c1ccc2c(c1)c1nc3ccccc3c(OCCCN3CCCCC3)c1n2CCCN1CCCCC1 (as salt: salt) [1d],124 to 128 °C,,,,,,,,,,,,,,,,,,
O=C(OCCN1CCCC1)c1ccc2c(c1)c1nc3ccccc3c(OCCN3CCCC3)c1n2CCN1CCCC1 [1b],,<2 °C,6 °C,12 °C,16 °C,5 °C,10 °C,,,,,,,,,,,,
O=C(OCCN1CCOCC1)c1ccc2c(c1)c1nc3ccccc3c(OCCN3CCOCC3)c1n2CCN1CCOCC1 [1c],,<2 °C,<2 °C,4 °C,7 °C,<2 °C,<2 °C,,,,,,,,,,,,
O=C(OCCCN1CCCCC1)c1ccc2c(c1)c1nc3ccccc3c(OCCCN3CCCCC3)c1n2CCCN1CCCCC1 [1d],,<2 °C,10 °C,15 °C,21 °C,9 °C,18 °C,,,,,,,,,,,,
CCN(CC)CCOC(=O)c1ccc2c(c1)c1c(c(=O)c3ccccc3n1CCN(CC)CC)n2CCN(CC)CC [2a],,<2 °C,<2 °C,11 °C,15 °C,4 °C,7 °C,1.44 µM,0.67 µM,0.67 µM,0.94 µM,100 fold,1.60 µM,5.46,0.99 µM,~40%,not significantly so,5.41 µM,
O=C(OCCN1CCCC1)c1ccc2c(c1)c1c(c(=O)c3ccccc3n1CCN1CCCC1)n2CCN1CCCC1 [2b],,3 °C,6 °C,14 °C,19 °C,10 °C,16 °C,,,,,,,,,,,,
O=C(OCCCN1CCCCC1)c1ccc2c(c1)c1c(c(=O)c3ccccc3n1CCCN1CCCCC1)n2CCCN1CCCCC1 [2d],,4 °C,12 °C,19 °C,25 °C,13 °C,22 °C,0.45 µM,0.28 µM,0.7 µM,1.12 µM,,0.58 µM,5.45,0.4 µM,~40%,not significantly so,2.18 µM,~20 fold

# Reference: publication PMC4449006, “Targeting KRAS Oncogene in Colon Cancer Cells with 7-Carboxylate Indolo[3,2-b]quinoline Tri-Alkylamine Derivatives” (PLoS ONE, 2015)
